pIC50: −log10 of the molar value. Blank lines part the entries; values can stand above or below the compound they belong to.
Key:
[1] = target: T1, MKK4 (Homo sapiens, UniProt P45985); assay: KINOMEscan competition binding assay, MKK4; details: residual percent of control binding (PoC) at 100 nM
T1 construct: S84/D399; host or cells: HEK-293
T1 sequence (P45985 84-399): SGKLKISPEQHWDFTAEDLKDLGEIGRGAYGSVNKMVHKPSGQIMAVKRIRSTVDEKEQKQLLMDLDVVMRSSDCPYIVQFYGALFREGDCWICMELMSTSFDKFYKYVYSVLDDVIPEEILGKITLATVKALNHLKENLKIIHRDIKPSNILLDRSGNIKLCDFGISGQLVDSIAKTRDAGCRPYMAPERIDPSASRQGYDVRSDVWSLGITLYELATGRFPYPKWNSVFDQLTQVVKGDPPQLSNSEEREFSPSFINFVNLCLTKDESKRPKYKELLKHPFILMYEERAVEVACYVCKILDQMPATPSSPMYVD
Experimental: (§1) The assay was performed by combining three components: DNA-tagged kinase; immobilized ligand; and a test compound. The ability of the test compound to compete with the immobilized ligand was measured via quantitative PCR of the DNA tag. The technology is described in detail in Fabian, M. A. et al. A small molecule-kinase interaction map for clinical kinase inhibitors. Nat. […] Nat.
(§2) For investigation of the affinity to MKK4, BRaf, MKK7 and JNK1, the kinases were produced in HEK-293 cells and subsequently tagged with DNA for qPCR detection. […] The liganded beads were blocked with excess biotin and washed with blocking buffer (SEABLOCK™ (Pierce), 1% BSA, 0.05% TWEEN®20, 1 mM DTT) to remove unbound ligand and to reduce nonspecific binding. […] All reactions were performed in polystyrene 96-well plates in a final volume of 0.135 mL. […] The kinase concentration in the eluates was measured by qPCR.
(§3) The test compounds were provided as 10 mM stock solutions. The test solutions at indicated final concentrations were prepared at DiscoverX.
Potency of representative examples against the protein kinases MKK4, BRaf, MKK7 and JNK1 expressed as residual percent of control binding (PoC), was determined at a concentration of 100 nM. The determined potencies are categorized as follows: […]

[2] = target: T2, BRaf (Homo sapiens, UniProt P15056); assay: KINOMEscan competition binding assay, BRaf; details: ratio PoC (off-target)/PoC (MKK4)
T2 construct: purchased ProQinase GmbH, Freiburg, Germany (33PanQinase Assay Service)
Experimental: as §1, §2, §3
(§4) Potency of representative examples against the protein kinases MKK4, BRaf, MKK7 and JNK1 expressed as residual percent of control binding (PoC), was determined at a concentration of 100 nM. The determined potencies are categorized as follows:
(§5) The binding selectivity of representative examples against the protein kinases BRaf, MKK7 and JNK1, altogether denominated as “off-targets” is determined by the ratios of PoC (off-target)/PoC (MKK4).

[3] = target: T3, MKK7 (Homo sapiens, UniProt O14733); assay: KINOMEscan competition binding assay, MKK7; design: M1/R419; host or cells: HEK-293; details: ratio PoC (off-target)/PoC (MKK4)
T3 sequence (O14733 1-419): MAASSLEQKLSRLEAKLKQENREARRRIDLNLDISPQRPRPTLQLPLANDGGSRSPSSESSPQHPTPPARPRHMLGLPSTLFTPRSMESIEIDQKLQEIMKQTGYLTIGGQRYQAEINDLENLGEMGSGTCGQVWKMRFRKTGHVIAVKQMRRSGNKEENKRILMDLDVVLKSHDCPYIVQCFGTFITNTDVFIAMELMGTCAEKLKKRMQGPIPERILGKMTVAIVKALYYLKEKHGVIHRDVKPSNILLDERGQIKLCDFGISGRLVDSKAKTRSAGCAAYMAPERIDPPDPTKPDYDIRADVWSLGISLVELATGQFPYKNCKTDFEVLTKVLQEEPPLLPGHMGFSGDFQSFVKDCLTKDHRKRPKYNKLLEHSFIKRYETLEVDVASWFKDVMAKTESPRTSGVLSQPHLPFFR
Experimental: as §1, §2, §3, §4, §5

[4] = target: T4, JNK1 (Homo sapiens, UniProt P45983); assay: KINOMEscan competition binding assay, JNK1; design: M1/Q384; host or cells: HEK-293; details: ratio PoC (off-target)/PoC (MKK4)
Experimental: as §1, §2, §3, §4, §5
Target sequence in this assay (P45983 1-384 isoform P45983-2): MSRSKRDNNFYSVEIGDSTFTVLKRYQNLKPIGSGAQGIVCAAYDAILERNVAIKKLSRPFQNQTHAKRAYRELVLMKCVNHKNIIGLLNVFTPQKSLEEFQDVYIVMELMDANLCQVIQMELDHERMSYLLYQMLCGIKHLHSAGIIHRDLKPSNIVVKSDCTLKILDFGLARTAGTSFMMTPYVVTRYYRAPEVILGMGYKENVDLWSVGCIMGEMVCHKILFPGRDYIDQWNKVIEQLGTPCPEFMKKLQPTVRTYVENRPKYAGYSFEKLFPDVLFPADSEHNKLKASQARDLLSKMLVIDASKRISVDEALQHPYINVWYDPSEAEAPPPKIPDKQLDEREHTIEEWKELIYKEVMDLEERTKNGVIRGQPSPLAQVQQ

[5] = target: T5, MKK4 (Homo sapiens, UniProt P45985); assay: 33PanQinase enzyme assay, MKK4; assay type: biochemical; details: assay 'IC50'; read-out: Potency MKK4 (IC50)
T5 construct: purchased ProQinase GmbH, Freiburg, Germany (33PanQinase Assay Service)
T5 sequence (P45985 1-399): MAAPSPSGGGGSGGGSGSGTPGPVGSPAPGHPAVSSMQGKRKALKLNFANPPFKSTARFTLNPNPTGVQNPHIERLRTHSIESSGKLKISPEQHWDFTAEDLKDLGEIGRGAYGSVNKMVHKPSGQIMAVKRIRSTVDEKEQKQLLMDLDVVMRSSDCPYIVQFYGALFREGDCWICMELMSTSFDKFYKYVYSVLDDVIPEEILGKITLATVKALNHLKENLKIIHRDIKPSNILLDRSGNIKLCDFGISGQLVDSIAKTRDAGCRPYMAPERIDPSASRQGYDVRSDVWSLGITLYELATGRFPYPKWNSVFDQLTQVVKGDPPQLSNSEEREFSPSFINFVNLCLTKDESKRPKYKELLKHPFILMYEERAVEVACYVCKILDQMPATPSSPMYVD
Method in brief: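 Inhibition measured as 33Pi transfer to substrate after a 60-min, 30 °C reaction, acid-stopped and scintillation-counted.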

[6] = target: T2, BRaf; assay: 33PanQinase enzyme assay, BRaf; assay type: biochemical; details: ratio IC50(BRaf)/IC50(MKK4)
Method in brief: (§6)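 33Pi incorporation, read by microplate scintillation counting, measured kinase activity after 60 min at 30 °C. Reactions were quenched with 2% (v/v) H3PO4 and washed with 0.9% NaCl. IC50 derived by least-squares fitting; single doses reported as % residual activity.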

[7] = target: T4, JNK1; assay: 33PanQinase enzyme assay, JNK1; assay type: biochemical; design: purchased ProQinase GmbH, Freiburg, Germany (33PanQinase Assay Service); details: ratio IC50(JNK1)/IC50(MKK4)
Method in brief: as §6
Target sequence in this assay (P45983 whole entry): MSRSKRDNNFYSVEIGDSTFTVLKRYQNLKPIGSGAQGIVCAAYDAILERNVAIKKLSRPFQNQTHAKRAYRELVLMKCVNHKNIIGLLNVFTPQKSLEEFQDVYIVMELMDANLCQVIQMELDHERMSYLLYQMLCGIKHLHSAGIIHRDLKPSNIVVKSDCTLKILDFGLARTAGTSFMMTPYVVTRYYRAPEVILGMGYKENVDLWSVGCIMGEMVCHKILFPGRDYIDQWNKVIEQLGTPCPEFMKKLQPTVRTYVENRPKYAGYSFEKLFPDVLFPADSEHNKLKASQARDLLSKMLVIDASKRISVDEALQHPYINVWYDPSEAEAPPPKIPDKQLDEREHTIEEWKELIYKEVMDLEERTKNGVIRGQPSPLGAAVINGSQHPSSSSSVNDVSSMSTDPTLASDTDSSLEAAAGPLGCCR

[8] = target: T3, MKK7; assay: 33PanQinase enzyme assay, MKK7; assay type: biochemical; design: purchased ProQinase GmbH, Freiburg, Germany (33PanQinase Assay Service); details: ratio IC50(MKK7)/IC50(MKK4)
Method in brief: as §6

T2 sequence (P15056 whole entry, species assumed): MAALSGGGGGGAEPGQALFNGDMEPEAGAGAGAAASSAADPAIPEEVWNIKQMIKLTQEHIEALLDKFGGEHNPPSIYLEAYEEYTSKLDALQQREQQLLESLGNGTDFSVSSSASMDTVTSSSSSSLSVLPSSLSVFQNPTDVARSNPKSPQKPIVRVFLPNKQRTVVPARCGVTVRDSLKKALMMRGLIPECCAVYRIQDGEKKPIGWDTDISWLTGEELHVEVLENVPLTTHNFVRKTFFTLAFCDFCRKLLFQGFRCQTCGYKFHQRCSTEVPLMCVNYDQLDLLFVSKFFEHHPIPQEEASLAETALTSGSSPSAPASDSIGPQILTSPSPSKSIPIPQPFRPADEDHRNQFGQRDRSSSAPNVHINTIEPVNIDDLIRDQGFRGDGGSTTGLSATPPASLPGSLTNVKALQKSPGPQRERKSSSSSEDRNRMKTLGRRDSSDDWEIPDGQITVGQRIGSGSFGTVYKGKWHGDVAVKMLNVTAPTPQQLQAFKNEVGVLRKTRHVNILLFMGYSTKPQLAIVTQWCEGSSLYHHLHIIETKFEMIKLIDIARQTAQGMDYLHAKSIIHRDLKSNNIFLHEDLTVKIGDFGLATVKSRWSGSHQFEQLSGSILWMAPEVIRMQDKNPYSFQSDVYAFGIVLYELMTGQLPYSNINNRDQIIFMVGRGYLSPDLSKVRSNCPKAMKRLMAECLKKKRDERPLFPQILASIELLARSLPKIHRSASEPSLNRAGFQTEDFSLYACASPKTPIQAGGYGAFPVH

MKK4 [% Ctrl @ 100 nM [1]: ◯ (30 ≤ PoC)
selectivity based on % Ctrl @100 nM vs. Braf [2]: ◯ (3 ≥ Ratio)
selectivity based on % Ctrl @100 nM vs. MKK7 [3]: ◯ (3 ≥ Ratio)
selectivity based on % Ctrl @100 nM vs. JNK1 [4]: ◯ (3 ≥ Ratio)
Structure (SMILES): CCCS(=O)(=O)Nc1cc(Br)cc(C(=O)c2c[nH]c3ncc(-c4ccc(Cl)cc4)cc23)c1 [Example 13, N-(3-bromo-5-(5-(4-chlorophenyl)-1H-pyrrolo[2,3-b]pyridine-3-carbonyl)-phenyl)propane-1-sulfonamide]

MKK4 [% Ctrl @ 100 nM [1]: ◯ (30 ≤ PoC)
selectivity based on % Ctrl @100 nM vs. Braf [2]: ◯ (3 ≥ Ratio)
selectivity based on % Ctrl @100 nM vs. MKK7 [3]: ◯ (3 ≥ Ratio)
selectivity based on % Ctrl @100 nM vs. JNK1 [4]: ◯ (3 ≥ Ratio)
Structure (SMILES): CCCS(=O)(=O)Nc1cc(Cl)cc(C(=O)c2c[nH]c3ncc(-c4ccc(Cl)cc4)cc23)c1 [Example 16, N-(3-chloro-5-(5-(4-chlorophenyl)-1H-pyrrolo[2,3-b]pyridine-3-carbonyl)phenyl)propane-1-sulfonamide]

MKK4 [% Ctrl @ 100 nM [1]: + (3 ≤ PoC < 30)
selectivity based on % Ctrl @100 nM vs. Braf [2]: ◯ (3 ≥ Ratio)
selectivity based on % Ctrl @100 nM vs. MKK7 [3]: + (10 ≥ ratio > 3)
selectivity based on % Ctrl @100 nM vs. JNK1 [4]: + (10 ≥ ratio > 3)
Structure (SMILES): C#Cc1cnc2[nH]cc(C(=O)c3c(F)ccc(NS(=O)(=O)CCC)c3F)c2c1 [Example 18, N-(3-(5-ethynyl-1H-pyrrolo[2,3-b]pyridine-3-carbonyl)-2,4-difluorophenyl) propane-1-sulfonamide]

MKK4 [% Ctrl @ 100 nM [1]: + (3 ≤ PoC < 30)
selectivity based on % Ctrl @100 nM vs. Braf [2]: ++ (100 ≥ ratio > 10)
selectivity based on % Ctrl @100 nM vs. MKK7 [3]: ++ (100 ≥ ratio > 10)
selectivity based on % Ctrl @100 nM vs. JNK1 [4]: ++ (100 ≥ ratio > 10)
Structure (SMILES): CCCCS(=O)(=O)Nc1ccc(F)c(C(=O)c2c[nH]c3ncc(-c4ccc(F)cc4C)cc23)c1F [Example 19, N-(2,4-difluoro-3-(5-(4-fluoro-2-methylphenyl)-1H-pyrrolo[2,3-b]pyridine-3-carbonyl)phenyl)butane-1-sulfonamide]

MKK4 [% Ctrl @ 100 nM [1]: + (3 ≤ PoC < 30)
selectivity based on % Ctrl @100 nM vs. Braf [2]: ◯ (3 ≥ Ratio)
selectivity based on % Ctrl @100 nM vs. MKK7 [3]: + (10 ≥ ratio > 3)
selectivity based on % Ctrl @100 nM vs. JNK1 [4]: + (10 ≥ ratio > 3)
Structure (SMILES): CCCS(=O)(=O)Nc1ccc(F)c(C(=O)c2c[nH]c3ncc(-c4ccc(OCC5COC(C)(C)O5)cc4Cl)cc23)c1F (centres unmarked) [Example 25, N-(3-(5-(2-chloro-4-((2,2-dimethyl-1,3-dioxolan-4-yl)methoxy)phenyl)-1H-pyrrolo[2,3-b]pyridine-3-carbonyl)-2,4-difluorophenyl)propane-1-sulfonamide]

The remaining lines, values behind:

Structure (SMILES): CCCNS(=O)(=O)c1cccc(C(=O)c2c[nH]c3ncc(Br)cc23)c1 [Example 14, 3-(5-bromo-1H-pyrrolo[2,3-b]pyridine-3-carbonyl)-N-propyl benzene sulfonamide]
MKK4 [% Ctrl @ 100 nM [1]: ◯ (30 ≤ PoC)
selectivity based on % Ctrl @100 nM vs. Braf [2]: ◯ (3 ≥ Ratio)
selectivity based on % Ctrl @100 nM vs. MKK7 [3]: ◯ (3 ≥ Ratio)
selectivity based on % Ctrl @100 nM vs. JNK1 [4]: ◯ (3 ≥ Ratio)

Structure (SMILES): CCCCS(=O)(=O)Nc1ccc(F)c(C(=O)c2c[nH]c3ncc(-c4ccc(OC)cc4Cl)cc23)c1F [Example 21, N-(3-(5-(2-chloro-4-methoxyphenyl)-1H-pyrrolo[2,3-b]pyridine-3-carbonyl)-2,4-difluorophenyl)butane-1-sulfonamide]
MKK4 [% Ctrl @ 100 nM [1]: ++ (1 ≤ PoC < 3)
selectivity based on % Ctrl @100 nM vs. Braf [2]: ++ (100 ≥ ratio > 10)
selectivity based on % Ctrl @100 nM vs. MKK7 [3]: ++ (100 ≥ ratio > 10)
selectivity based on % Ctrl @100 nM vs. JNK1 [4]: ++ (100 ≥ ratio > 10)

Structure (SMILES): CCCS(=O)(=O)Nc1ccc(F)c(C(=O)c2c[nH]c3ncc(-c4ccc(N5CCN(C(C)=O)CC5)cc4)cc23)c1F [Example 24, N-(3-(5-(4-(4-acetylpiperazin-1-yl)phenyl)-1H-pyrrolo[2,3-b]pyridine-3-carbonyl)-2,4-difluorophenyl)propane-1-sulfonamide]
MKK4 [% Ctrl @ 100 nM [1]: + (3 ≤ PoC < 30)
selectivity based on % Ctrl @100 nM vs. Braf [2]: ◯ (3 ≥ Ratio)
selectivity based on % Ctrl @100 nM vs. MKK7 [3]: ++ (100 ≥ ratio > 10)
selectivity based on % Ctrl @100 nM vs. JNK1 [4]: + (10 ≥ ratio > 3)

Structure (SMILES): O=C(c1cccc(NS(=O)(=O)Cc2ccccc2)c1F)c1c[nH]c2ncc(-c3cc4c(cc3Cl)OCCO4)cc12 [Example 127, N-(3-(5-(7-chloro-2,3-dihydrobenzo[b][1,4]dioxin-6-yl)-1H-pyrrolo[2,3-b]pyridine-3-carbonyl)-2-fluorophenyl)-1-phenylmethanesulfonamide]
MKK4 [% Ctrl @ 100 nM [1]: ++ (1 ≤ PoC < 3)
pIC50 [5]: 6.00 to 7.00

Structure (SMILES): CCCS(=O)(=O)Nc1c(F)ccc(C(=O)c2c[nH]c3ncc(C4CCC4)cc23)c1F [Example 239, N-(3-(5-cyclobutyl-1H-pyrrolo[2,3-b]pyridine-3-carbonyl)-2,6-difluorophenyl)propane-1-sulfonamide]
pIC50 [5]: > 7.00
Selectivity Braf, IC50(off-target)/IC50(MKK4) [6]: +++ (IC50(off-target)/IC50(MKK4) > 100)
Selectivity JNK1, IC50(off-target)/IC50(MKK4) [7]: ++ (100 ≥ IC50(off-target)/IC50(MKK4) > 10)
Selectivity IVIKK7, IC50(off-target)/IC50(MKK4) [8]: +++ (IC50(off-target)/IC50(MKK4) > 100)
